Data from ChEMBL document CHEMBL2074412, “Cloning of the human kidney PAH transporter: narrow substrate specificity and regulation by protein kinase C” (Am J Physiol, 1999).

Key:
Type in all cases: functional, cell-based
[1] = molecular target: T1, Solute carrier family 22 member 6 (Homo sapiens, UniProt Q4U2R8); assay: TP_TRANSPORTER: inhibition of PAH uptake (alpha,-KG: 200 uM) in OAT1-expressing HeLa cells
T1 sequence (Q4U2R8 whole entry): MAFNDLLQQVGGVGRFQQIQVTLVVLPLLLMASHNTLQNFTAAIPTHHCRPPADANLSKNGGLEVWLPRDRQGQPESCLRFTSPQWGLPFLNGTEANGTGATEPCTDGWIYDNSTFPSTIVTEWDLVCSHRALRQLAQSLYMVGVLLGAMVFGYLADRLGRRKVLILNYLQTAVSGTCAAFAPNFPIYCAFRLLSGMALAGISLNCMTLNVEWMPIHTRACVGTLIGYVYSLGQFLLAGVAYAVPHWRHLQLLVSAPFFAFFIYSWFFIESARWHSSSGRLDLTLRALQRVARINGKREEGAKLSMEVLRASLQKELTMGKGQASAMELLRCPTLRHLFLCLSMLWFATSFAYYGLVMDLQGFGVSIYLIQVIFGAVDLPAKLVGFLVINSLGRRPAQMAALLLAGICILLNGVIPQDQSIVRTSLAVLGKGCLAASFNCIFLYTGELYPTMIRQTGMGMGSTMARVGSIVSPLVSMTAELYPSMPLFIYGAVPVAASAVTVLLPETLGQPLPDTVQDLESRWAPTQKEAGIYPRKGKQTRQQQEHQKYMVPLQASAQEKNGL

[2] = molecular target: T1, Solute carrier family 22 member 6; assay: TP_TRANSPORTER: uptake in OAT1-expressing HeLa cells
[3] = molecular target: T1, Solute carrier family 22 member 6; assay: TP_TRANSPORTER: inhibition of PAH uptake (Anandamide: 100 uM) in OAT1-expressing HeLa cells
[4] = molecular target: T1, Solute carrier family 22 member 6; assay: TP_TRANSPORTER: inhibition of PAH uptake (PAH: 0.4 uM, Phenylbutazone: 200 uM) in OAT1-expressing HeLa cells
[5] = molecular target: T1, Solute carrier family 22 member 6; assay: TP_TRANSPORTER: inhibition of PAH uptake (Furosemide: 200 uM) in OAT1-expressing HeLa cells
[6] = molecular target: T1, Solute carrier family 22 member 6; assay: TP_TRANSPORTER: inhibition of PAH uptake (Indomethacin: 200 uM) in OAT1-expressing HeLa cells

## O=C(O)CCC(=O)C(=O)O [ALPHA-KETOGLUTARIC ACID]
[1]
  Activity: inhibitor [(at a rough estimate) 35 % of control]
[2]
  Activity: substrate [+]

## CCCCC/C=C\C/C=C\C/C=C\C/C=C\CCCC(=O)NCCO [ANANDAMIDE]
[3]
  Activity: is not an inhibitor [-]

## O=C1OC2(c3ccc(O)cc3Oc3cc(O)ccc32)c2ccccc21 [FLUORESCEIN]
[4]
  Activity: inhibitor [(at a rough estimate) 20 % of control]

## NS(=O)(=O)c1cc(C(=O)O)c(NCc2ccco2)cc1Cl [FUROSEMIDE]
[5]
  Activity: inhibitor [(at a rough estimate) 50 % of control]

## COc1ccc2c(c1)c(CC(=O)O)c(C)n2C(=O)c1ccc(Cl)cc1 [INDOMETHACIN]
[6]
  Activity: inhibitor [(at a rough estimate) 20 % of control]
